US11882828B2, “Mosquito vector control compositions, methods and products utilizing same” (priority 2015, dated 2024)

How the values were obtained:
[1] = system: Aedes aegypti (Yellow fever mosquito); experiment: whole plant or invertebrate; settings: Aedes aegypti
Procedure: […] Once the deposits were dry, five non-blood fed adult female Aedes aegypti (between two to five days old) were added to each well, and sustained with a 10% sucrose solution in a cotton wool plug. Assessment of the knockdown after 1 hour, and mortality after 48 hours was carried out.
(§1) In case of multiple tests, the mean value is reported.

[2] = system: An. Gambiae Kisumu sus; experiment: Example B4: cross resistance study, 6-well plate; format: in vivo
Procedure: In each study, a set of plates were infested with a known insecticide susceptible strain of mosquitoes from the same genera as the resistant strains.
Assessment of the knockdown after 60 minutes and mortality after 24 hours was carried out. Each treatment was replicated a minimum of four times, with the mean knockdown or mortality recorded.
A comparison of the knockdown and mortality of the resistant strain of mosquitoes was made to that of the susceptible to identify evidence of cross resistance.

[3] = system: Anopheles stephensi (Indian malaria mosquito); experiment: whole plant or invertebrate; settings: Anopheles stephensi
Procedure: […] Once the deposits were dry, five non-blood fed adult female Anopheles stephensi (between two to five days old) were added to each well, and sustained with a 10% sucrose solution in a cotton wool plug. Assessment of the knockdown after 1 hour, and mortality after 48 hours was carried out.
as §1

CO/C=C(/C(=O)OC)c1ccccc1Oc1nc(C(C)(C)C)ns1 [Compound 7, Methyl (E)-2-[2-[(3-tert-butyl-1,2,4-thiadiazol-5-yl)oxy]phenyl]-3-methoxy-prop-2-enoate]
67%: pest or weed control at 20 ppm ([3]; 1 h, read-out: Knockdown)
100%: pest or weed control at 20 ppm ([1]; 1 h, read-out: Knockdown) | mortality at 20 ppm ([1]; 48 h) | Knockdown ([2]; 2.50 ppm, after 60 minutes, Kisumu sus) | mortality at 2.5 ppm ([2]; Anopheles gambiae, 24 h) | mortality at 20 ppm ([3]; 48 h)
